Structures can show the parent of a compound that is named as a salt.

This test has as its system HRECs treated with VEGF (human retinal endothelial cells). The test is described as follows: in vitro permeability / Electrical Cell-Substrate Impedance Sensing (ECIS) assay. The conditions noted are these: 50 ng/ml Rec. VEGF, compounds at 10 uM, resistance calculated at the end of 24 hrs. The class given is cell-based.

Protocol: The 250-um diameter gold electrode measures the ion current in the cell layer and measures the resistance and how the barrier function is altered with VEGF and drug treatment.
The inventors used the Prestwick chemical library compounds, which consists of a total of 1520 library compounds to check their effectiveness to decrease permeability in HRECs treated with VEGF (FIG. 4). […] The in vitro permeability or Electrical Cell-Substrate Impedance Sensing (ECIS) assay was carried out using Applied biophysics Z theta instrument, using 96W10idf PET plates. The HRECs were first seeded on the plates and the cells were allowed to grow until the desired resistance was achieved (800-1200V), this usually takes 15-18 hrs. After that the cells were treated with 50 ng/ml Rec. VEGF and the compounds at 10 uM concentration. At the end of 24 hrs, the resistance was calculated (an increase in resistance implies decreased permeability).

For `N#Cc1ccc(Oc2ccc3c(c2)COB3O)cc1` [Crisaborole, crisaborole], the “resistance of EC layer (an increase in resistance implies decreased permeability)” value is “significant increase in resistance”. To `CNCCCN1c2ccccc2CCc2ccccc21` [Desipramine HCl, desipramine] belongs “significant increase in resistance”; to `OC[C@H]1O[C@@H](c2ccc(Cl)c(Cc3ccc(O[C@H]4CCOC4)cc3)c2)[C@H](O)[C@@H](O)[C@@H]1O` [Empaglifozin, empagliflozin], “significant increase in resistance”. Under `CN(C)CCN(Cc1cccs1)c1ccccn1` [Methapyrilene, methapyrilene] stands “increased resistance”.

In the case of `c1ccc2c(CC3=NCCN3)cccc2c1` [Naphazoline HCl, naphazoline], the “resistance of EC layer (an increase in resistance implies decreased permeability)” value is given as “increased resistance”. To `O=[N+]([O-])c1ccc(O)c2ncccc12` [Nitroxolone, nitroxolone] belongs “significant increase in resistance”; to `Cc1ccc(N(CC2=NCCN2)c2cccc(O)c2)cc1` [Phentolamine, phentolamine], “increased resistance”; to `CNCCCC1c2ccccc2C=Cc2ccccc21` [Protriptyline HCl, protriptyline], “significant increase in resistance”. To `Cc1noc(NS(=O)(=O)c2ccc(N)cc2)c1C` [Sulfisoxazole, sulfisoxazole] belongs “increased resistance”. As for `CC(C(=O)O)c1ccc(C(=O)c2cccs2)cc1` (stereo not shown) [Suprofen, suprofen], the “resistance of EC layer (an increase in resistance implies decreased permeability)” value was “increased resistance”.

Source of the values: patent US20250381195A1, “Methods of Treating Diabetic Macular Edema” (UNM Rainforest Innovations, priority 2024, published 2025).
